The assay has as its system TARP antigen-specific T cells. Nature of the assay: IFN-γ ELISPOT on splenocytes of vaccinated HLA-A2 transgenic (AAD) mice, s.c. day 0 and day 7. To be noted: for response when used as a stimulatory peptide for the ELISPOT: HLA-A2 transgenic mouse model; for TARP 21-40 ELISPOT responses: FIG. 8; for TARP 29-37 (9V) ELISPOT responses: encapsulated in R-DOTAP nanoparticles, stimulatory peptide TARP 29-37 (9V) in water/sucrose. The assay is classed as in vivo, HLA-A2 expressing transgenic mice (AAD mice).

The mark [1] stands for this setting: FIG. 6, formulated with R-DOTAP nanoparticles, stimulatory peptide SEQ ID NO:3 (9V), antigen dose 100 micrograms.
[2] abbreviates: FIG. 7, formulated with R-DOTAP nanoparticles, stimulatory peptide TARP 21-40 (SEQ ID NO:6), antigen dose 100 micrograms.
Setting [3] is: formulated with R-DOTAP nanoparticles, two immunizations, stimulatory peptide TARP 21-40 (17V) in water/sucrose.
The mark [4] stands for this setting: FIG. 5, formulated in CFA, stimulatory peptide TARP 27-35 (SEQ ID NO:2), antigen dose 100 micrograms.

No end group written: not given here.

6 substances from US20240317833A1, “NON-HLA RESTRICTED T CELL VACCINE FOR TCR GAMMA ALTERNATE READING FRAME PROTEIN (TARP) PROTEIN EXPRESSING CANCERS” (PDS BIOTECHNOLOGY CORPORATION, priority 2022, published 2024) can be followed below.

Consider “FLRNFSLMV (not fully specified) [SEQ ID NO:3]”, for which, under “FIG. 6”, the “response when used as a stimulatory peptide for the ELISPOT” value (from here on “response when used”) is “apparently inactive”. In addition, the “antigen-specific ELISPOT responses” value is reported as “no antigen-specific ELISPOT responses” under setting [1] and “no or very weak antigen-specific ELISPOT responses” under setting [2]. For the same substance, under setting [3], the “TARP 21-40 ELISPOT responses” value is on record as “no or very weak TARP 21-40 ELISPOT responses”. Also, the “ELISPOT responses to TARP 29-37 (9V)” value (FIG. 9, Complete Freund's Adjuvant (CFA), stimulatory peptide TARP 29-37 (9V)) was “Very weak or no ELISPOT responses”. Besides, for the setting “FIG. 9, two immunizations”, the “TARP 29-37 (9V) ELISPOT responses” value is on record as “did not appear to elicit any TARP 29-37 (9V) ELISPOT responses”.

“FVFLRNFSL (not fully specified) [SEQ ID NO:2]”: the “response when used” value (FIG. 5) is “apparently inactive”.

Regarding “KSS-FLRNFSLMV (not fully specified; palmitoylated; SITE 1 Palmitoyl modified residue) [SEQ ID NO:10, palmitoylated TARP 2 (29-37)]”, under setting [4], the “antigen-specific ELISPOT responses” value is “no antigen-specific ELISPOT responses”.

Consider “KSS-RRLEHTFVFLRNFSLMLLRG (not fully specified; palmitoylated; SITE 1 Palmitoyl modified residue) [SEQ ID NO:13, palmitoylated TARP 6 (21-40)]”, for which the “antigen-specific ELISPOT responses” value under setting [4] is “no antigen-specific ELISPOT responses”; the “antigen-specific ELISPOT responses” value (FIG. 6, formulated in CFA, stimulatory peptide SEQ ID NO:3 (9V), antigen dose 100 micrograms) is listed as “no antigen-specific ELISPOT responses”; the “antigen-specific ELISPOT responses” value under setting [1] is “no antigen-specific ELISPOT responses”; the “antigen-specific ELISPOT responses” value (FIG. 7, formulated in CFA, stimulatory peptide TARP 21-40 (SEQ ID NO:6), antigen dose 100 micrograms) is recorded as “no or very weak antigen-specific ELISPOT responses”; the “antigen-specific ELISPOT responses” value under setting [2] is reported as “no or very weak antigen-specific ELISPOT responses”. Also, the “TARP 21-40 ELISPOT responses” value under setting [3] is given as “no or very weak TARP 21-40 ELISPOT responses”.

Consider “RRLEHTFVFLRNFSLMLLRG (not fully specified) [SEQ ID NO:6]”, for which the “antigen-specific ELISPOT responses” value is, setting by setting: under setting [4], “no antigen-specific ELISPOT responses”; under setting [1], “no antigen-specific ELISPOT responses”; under setting [2], “no or very weak antigen-specific ELISPOT responses”. In addition, for the setting “FIG. 7”, the “response when used” value is “inactive or very weakly active”. For the same substance, the “TARP 21-40 ELISPOT responses” value (Complete Freunds Adjuvant (CFA), stimulated with TARP 21-40 (SEQ ID NO:6)) is reported as “very weakly active” and the “TARP 21-40 ELISPOT responses” value under setting [3] is on record as “no or very weak TARP 21-40 ELISPOT responses”. For the same substance, the “TARP 29-37 (9V) ELISPOT responses” value (FIG. 9, two immunizations) is “did not appear to elicit any TARP 29-37 (9V) ELISPOT responses”.

Turning to “SSEEEDE-RRLEHTFVFLRNFSLMLLRG (SSEEEDERRLEHTFVFLRNFSLMLLRG; Anionic amino acids) [SEQ ID NO:21]”, the “antigen-specific ELISPOT responses” value runs as follows: under setting [4], “no antigen-specific ELISPOT responses”; under setting [1], “no antigen-specific ELISPOT responses”; under setting [2], “no or very weak antigen-specific ELISPOT responses”. The “mice responding to vaccination” value (FIG. 7, R-DOTAP nanoparticles, antigen dose 100 micrograms) is “two of six”. Also, the “TARP 21-40 ELISPOT responses” value under setting [3] was “no or very weak TARP 21-40 ELISPOT responses”.
